The target in this experiment is Acetylcholinesterase (Homo sapiens, UniProt P22303).

Some results are limits rather than exact numbers.

Sequence of Acetylcholinesterase (P22303 whole entry): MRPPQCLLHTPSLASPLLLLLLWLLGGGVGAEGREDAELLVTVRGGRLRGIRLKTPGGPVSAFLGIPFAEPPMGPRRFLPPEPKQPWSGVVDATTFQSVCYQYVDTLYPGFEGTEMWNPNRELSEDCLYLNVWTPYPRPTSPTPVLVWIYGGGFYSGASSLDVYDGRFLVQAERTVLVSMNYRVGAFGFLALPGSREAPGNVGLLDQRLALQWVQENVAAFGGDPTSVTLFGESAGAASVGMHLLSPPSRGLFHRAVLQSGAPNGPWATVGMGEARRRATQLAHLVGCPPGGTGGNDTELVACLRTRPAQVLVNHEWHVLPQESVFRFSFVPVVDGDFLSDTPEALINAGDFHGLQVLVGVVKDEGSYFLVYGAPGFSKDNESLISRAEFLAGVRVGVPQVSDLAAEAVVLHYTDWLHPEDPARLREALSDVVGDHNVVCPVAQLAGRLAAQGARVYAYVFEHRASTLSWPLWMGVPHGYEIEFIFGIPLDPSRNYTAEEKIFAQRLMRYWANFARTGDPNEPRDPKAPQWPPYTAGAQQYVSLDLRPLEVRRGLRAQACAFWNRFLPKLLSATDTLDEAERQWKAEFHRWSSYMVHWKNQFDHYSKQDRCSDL
Description: Inhibitory concentration required against acetylcholinesterase activity

For orientation: IC50 means the concentration that inhibits the measured activity by half. `O=C1CCN(Cc2ccccc2)C/C1=C\c1c[nH]c2ccc(OCc3ccccc3)cc12` registered a half-inhibitory concentration (IC50) of 25 µM.
The figure for `O=C1CCN(Cc2ccccc2)C/C1=C\c1cccn1C(=O)c1ccccc1` is 30 µM; for `O=C1/C(=C/c2ccc[nH]2)CN(Cc2ccccc2)C/C1=C\c1ccc[nH]1` it is 18 µM; for `O=C1CCN(Cc2ccccc2)C/C1=C\c1cn(C(=O)c2ccc([N+](=O)[O-])cc2)c2ccccc12` it is 50 µM.
The molecule `O=C1CCN(Cc2ccccc2)C/C1=C\c1cn(C(=O)c2ccc(F)cc2)c2ccccc12` showed an IC50 of 60 µM.
The result for `COc1ccc2[nH]cc(/C=C3\CN(Cc4ccccc4)CCC3=O)c2c1` reads 6 µM; that for `COc1ccc(C(=O)n2cc(/C=C3\CN(Cc4ccccc4)CCC3=O)c3ccccc32)cc1`, 70 µM; that for `COc1ccc2c(c1)c(/C=C1\CN(Cc3ccccc3)CCC1=O)cn2C(=O)c1ccccc1`, 80 µM.
The figure for `O=C1CCN(Cc2ccccc2)C/C1=C\c1ccc[nH]1` is 11 µM; for `Cc1[nH]c(C)c(/C=C2\CN(Cc3ccccc3)CCC2=O)c1C=O` it is 30 µM.
The result for `O=C1CCN(Cc2ccccc2)C/C1=C\c1cn(C(=O)c2ccc(Cl)cc2)c2ccccc12` reads 50 µM.
For the molecule `CC(=O)n1cc(/C=C2\CN(Cc3ccccc3)CCC2=O)c2ccccc21`, the IC50 worked out at 11 µM.
The figure for `N#Cc1ccc(C(=O)n2cc(/C=C3\CN(Cc4ccccc4)CCC3=O)c3ccccc32)cc1` is 20 µM; for `CC(C)(C)OC(=O)n1cc(/C=C2\CN(Cc3ccccc3)CCC2=O)c2ccccc21` it is 30 µM; for `O=C1CCN(Cc2ccccc2)C/C1=C\c1cn(C(=O)c2ccccc2)c2ccccc12` it is 70 µM.
Take `O=C1CCN(Cc2ccccc2)C/C1=C\c1ccn(C(=O)c2ccccc2)c1`: the midpoint of inhibition, the IC50, lay at 30 µM.
As for `O=C1/C(=C/c2cc[nH]c2)CN(Cc2ccccc2)C/C1=C\c1cc[nH]c1`, the 50% inhibitory concentration (IC50) was 6 µM.
The molecule `O=C1CCN(Cc2ccccc2)C/C1=C\c1cc[nH]c1` gave an IC50 of 6 µM.
The figure for `O=C1CCN(Cc2ccccc2)C/C1=C\c1c[nH]c2ccccc12` is 8 µM; for `O=C1CCN(Cc2ccccc2)C/C1=C\c1cn(Cc2ccccc2)c2ccccc12` it is more than 100 µM.

Values taken from ChEMBL document CHEMBL1134784, “Synthesis and screening for antiacetylcholinesterase activity of (1-benzyl-4-oxopiperidin-3-ylidene)methylindoles and -pyrroles related to donepezil” (J Med Chem, 2001).
